Read-outs that look alike come from different tables or passages of the source.
Experiments:
AKT1 = target: T1, AKT1 (Homo sapiens, UniProt P31749); assay: AKT1 biochemical kinase assay (FP iMAP)
T1 construct: purchased Millipore
Protocol: Biochemical analysis was performed using kinases obtained from Millipore (AKT1, ∆AKT1, ∆AKT2, ∆AKT3) and Signal Chem (AKT2 and AKT3). […] (Molecular Devices) against the three isoforms of AKT and their PH domain null mutants. Compounds were dissolved in DMSO prior to screening at 14 point titration series in the range (50 µM–50 pM). Fluorescence polarisation was measured using a Biotek Synergy 4 Hybrid microplate reader. Percentage inhibition of kinase activity was calculated and IC50 values derived using non-linear regression on GraphPad Prism. Competition of ALM301 with ATP was determined using AKT1 under increasing ATP concentrations up to 1000 µM.

∆AKT1 = assay: PH domain null AKT1 biochemical kinase assay (FP iMAP)
Protocol: (§1) Biochemical analysis was performed using kinases obtained from Millipore (AKT1, ∆AKT1, ∆AKT2, ∆AKT3) and Signal Chem (AKT2 and AKT3). The specific activity of AKT 1,2 and 3 was determined to be 114 nmol/min/mg, 44 nmol/min/mg and 200 nmol/min/mg respectively as per activity assay protocol. ALM301 was profiled using the Fluorescent Polarisation (FP) iMAP Screening Express kit (Molecular Devices) using the FAM-Crosstide substrate [5FAM-[…]-OH] (Molecular Devices) against the three isoforms of AKT and their PH domain null mutants. Compounds were dissolved in DMSO prior to screening at 14 point titration series in the range (50 µM–50 pM). Fluorescence polarisation was measured using a Biotek Synergy 4 Hybrid microplate reader. Percentage inhibition of kinase activity was calculated and IC50 values derived using non-linear regression on GraphPad Prism. Competition of ALM301 with ATP was determined using AKT1 under increasing ATP concentrations up to 1000 µM.

CYP 2C9 = CYP 2C9 (Homo sapiens, UniProt P11712); assay: CYP2C9 inhibition; assay type: in vitro ADME
Sequence of CYP 2C9 (P11712 whole entry): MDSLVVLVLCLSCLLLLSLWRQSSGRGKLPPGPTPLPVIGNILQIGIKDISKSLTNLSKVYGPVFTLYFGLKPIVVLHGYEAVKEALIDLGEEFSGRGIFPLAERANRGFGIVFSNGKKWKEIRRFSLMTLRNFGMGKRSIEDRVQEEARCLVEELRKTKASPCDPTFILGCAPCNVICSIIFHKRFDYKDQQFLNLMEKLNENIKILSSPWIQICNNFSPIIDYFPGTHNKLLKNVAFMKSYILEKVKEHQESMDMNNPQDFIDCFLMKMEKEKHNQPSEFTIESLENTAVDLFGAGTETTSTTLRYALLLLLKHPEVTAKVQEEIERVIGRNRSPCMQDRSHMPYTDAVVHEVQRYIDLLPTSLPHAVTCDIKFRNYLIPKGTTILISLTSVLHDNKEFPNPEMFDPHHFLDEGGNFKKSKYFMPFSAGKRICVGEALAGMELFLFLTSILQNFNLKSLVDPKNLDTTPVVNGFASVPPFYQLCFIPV

[1] = In vitro microsomal stability, human; assay type: in vitro ADME; details: pH 7.4; human liver microsomes; read-out: human LM CLint
Protocol: Compounds (final concentration = 1 µM; final DMSO concentration = 0.1%) were incubated in 0.1 M phosphate buffer at pH 7.4 with liver microsomes (human, mouse, rat or dog; 0.5 mg of protein/mL) at 37 °C. Reactions were started by addition of NADPH in 0.1 M phosphate buffer pH 7.4 (final concentration 1 mM). Reactions were quenched by addition of ice-cold methanol and frozen. The supernatants were analysed by LC/MS/MS on a Waters Acquity I-Class coupled to a Waters Xevo TQD mass spectrometer. A Waters BEH C18 2.1 × 50 mm 1.7 µm column was used and mobile phases consisted of water and methanol containing 0.1% formic acid as modifier. Analysis was by multiple reaction monitoring and conditions were optimised for each test compound.

pAKT in MCF-7 cells = assay: Western blot of pAKT and pGSK3β in MCF-7 cells; assay type: cell-based; details: 1 µM, observed from 1 h after treatment
Protocol: AKT inhibitor treated cell lysates were obtained using RIPA lysis buffer supplemented with protease and phosphatase inhibitor tablets (Roche). Protein samples (30 µg/lane) were run by SDS-PAGE and transferred to Hybond C extra nitrocellulose membranes (Amersham Biosciences) before incubation with the following primary antibodies; pAKT, total AKT, pGSK3β, total GSK3 β, p(Cell Signaling Technologies), Actin (Sigma) or Vinculin (Santa Cruz). Primary antibodies were diluted at 1:1000 (except Actin which was diluted 1:5000). Secondary antibodies were diluted 1:10,000. Blots were visualised using Amersham ECL plus western blot detection system (GE Healthcare) or Odyssey CLx system (LI-COR).

[2] = tested on: pGSK3β in PC3 prostate cancer cells; assay: pGSK3β ELISA in PC3 cells; assay type: cell-based; details: Homo sapiens, PC-3; PC3 cells, 24 h
Protocol: Cells were then washed with PBS and lysed. The subsequent supernatant was assayed using a GSK3β (pS9) (Invitrogen, Life Technologies) ELISA. Phospho-AKT levels were detected using the phospho-AKT (S473) immunoassay (R&D Systems) as per manufacturer’s protocol. Percentage inhibition of phosphorylation status was calculated by comparing phospho-AKT levels to total AKT levels with each treatment and IC50 values derived using non-linear regression on GraphPad Prism.

∆AKT3 = assay: PH domain null AKT3 biochemical kinase assay (FP iMAP)
Protocol: as §1

CYP 2D6 = CYP 2D6 (Homo sapiens, UniProt P10635); assay: CYP2D6 inhibition; assay type: in vitro ADME
Sequence of CYP 2D6 (P10635 whole entry): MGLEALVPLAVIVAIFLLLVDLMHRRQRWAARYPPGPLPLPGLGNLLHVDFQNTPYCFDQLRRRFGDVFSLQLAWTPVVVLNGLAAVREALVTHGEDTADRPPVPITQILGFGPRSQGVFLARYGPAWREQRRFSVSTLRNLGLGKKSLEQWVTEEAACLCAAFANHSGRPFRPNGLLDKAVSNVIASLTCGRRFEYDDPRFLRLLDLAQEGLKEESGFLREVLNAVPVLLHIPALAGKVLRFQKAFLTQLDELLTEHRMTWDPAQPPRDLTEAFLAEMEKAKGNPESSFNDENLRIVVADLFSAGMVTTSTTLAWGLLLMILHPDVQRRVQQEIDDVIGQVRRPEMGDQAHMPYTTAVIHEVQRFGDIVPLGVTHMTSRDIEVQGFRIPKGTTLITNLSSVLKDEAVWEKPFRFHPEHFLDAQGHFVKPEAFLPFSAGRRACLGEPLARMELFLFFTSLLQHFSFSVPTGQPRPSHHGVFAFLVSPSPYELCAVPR

[3] = tested on: pAKT^S473 in A549 tumours; assay: PK/PD study in A549 lung cancer xenograft model; assay type: in vivo, mouse; details: single oral dose 10, 30 or 100 mg/kg
Protocol: In order to understand the relationship between ALM301 plasma exposure and in vivo AKT target engagement over time, a PK/PD study was carried out in a A549 lung cancer xenograft model. […] ALM301 plasma concentrations and levels of pAKT^S473 in tumours were measured using western blotting and immunohistochemistry (Fig. 4A, B and Supplementary Fig. S4A–C). […] Tumour sections were collected following one dose of either vehicle or 30 mg/kg of ALM301 at noted time intervals (1 h, 2 h, 4 h, 8 h, 24 h). Tissue sections were subsequently stained with pAKT antibody (brown) staining and scored for pAKT staining using a scale of 1–4 (low to high) (Fig. 4B).
For pharmacokinetic/pharmacodynamic (PK/PD) studies in A549 lung cancer xenografts, 150 male BALB/c nude mice aged 6–8 weeks and weighing approximately 18–22 g were inoculated with 1 × 10^7 A549 tumour cells (ATCC) in 0.1 mL of PBS with Matrigel (1:1) subcutaneously into the right flank. Once the mean tumour size reached 150–250 mm^3, the mice were randomised into treatment groups (18 mice per group) using a randomised block design (first, experimental animals are divided into homogeneous blocks according to their initial tumour volume; secondly, within each block, randomisation of animals to treatment groups was conducted so that each animal had the same probability of being assigned to a given treatment, thereby reducing systematic bias). Group sizes were devised based on previous pilot studies using a minimal numbers approach of n = 3 tumours per time-point (6 time-points per dose level). […] Tumour size was measured twice weekly in two dimensions using a caliper, and the volume expressed in mm^3 using the formula: V = 0.5 (a × b^2), where a and b are the long and short diameters of the tumour, respectively.

MCF-7 cells = assay: Clonogenic cell survival assay; assay type: cell-based; details: Homo sapiens, MCF7; MCF-7, concentration range 0.001–10 µM

T1 sequence (P31749 whole entry): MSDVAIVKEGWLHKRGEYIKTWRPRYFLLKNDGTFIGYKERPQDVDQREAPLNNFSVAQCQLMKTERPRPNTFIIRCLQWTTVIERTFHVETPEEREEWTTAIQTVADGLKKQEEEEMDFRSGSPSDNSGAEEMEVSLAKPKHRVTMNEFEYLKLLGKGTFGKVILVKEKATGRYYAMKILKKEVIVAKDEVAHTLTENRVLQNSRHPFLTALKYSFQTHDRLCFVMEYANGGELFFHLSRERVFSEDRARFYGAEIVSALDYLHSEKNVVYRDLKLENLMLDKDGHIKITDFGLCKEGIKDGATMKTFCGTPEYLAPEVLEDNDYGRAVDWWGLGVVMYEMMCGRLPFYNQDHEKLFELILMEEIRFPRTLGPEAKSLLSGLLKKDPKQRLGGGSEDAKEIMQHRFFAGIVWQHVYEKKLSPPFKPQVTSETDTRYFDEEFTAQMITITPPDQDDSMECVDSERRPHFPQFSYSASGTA

Compound `CCN1C(=O)COc2nc(-c3ccc([C@]4(N)C[C@@H](O)C4)cc3)c(-c3ccccc3)cc21` [ALM301, 6-(4-((1S,3S)-1-amino-3-hydroxycyclobutyl)phenyl)-1-ethyl-7-phenyl-1H-pyrido[2,3-b][1,4]oxazin-2(3H)-one] has an IC50 (AKT1; ATP concentration 150 µM, read-out: IC50 vs. AKT1) of 121 nM, an IC50 (AKT1; ATP concentration 500 µM, read-out: IC50 vs. AKT1) of 157 nM and an IC50 (AKT1; ATP concentration 1000 µM, read-out: IC50 vs. AKT1) of 110 nM. For the same compound, the IC50 (AKT1; full length AKT1, read-out: IC50 full length AKT1) was 125 nM, the IC50 (AKT1; read-out: AKT IC50, AKT1) was 130 nM and the “inhibition of truncated AKT1 lacking PH domain” value (∆AKT1) was “not inhibited”. The IC50 (CYP 2C9) was greater than 25 µM, the microsomal CLint at 1 µM [1] was 3.7 µL/min/mg and the “inhibition of AKT phosphorylation (western blot)” value (pAKT in MCF-7 cells) was “sustained up to 48 h”. The IC50 [2] was 160 nM, the “inhibition of truncated AKT3 lacking PH domain” value (∆AKT3) was “not inhibited” and the IC50 (CYP 2D6) was greater than 25 µM. The “pAKT^S473 in tumours” value ([3]; all timepoints over 24 h, BALB/c mice bearing A549 xenografts) was “almost total abrogation”, the total plasma concentrations ([3]; mice bearing A549 xenografts) was “dose-dependent increases” and the IC50 (MCF-7 cells) was 100 nM.
